Reference: paper PMC8279416, “Structural Fine-Tuning of Desmuramylpeptide NOD2 Agonists Defines Their In Vivo Adjuvant Activity” (Journal of Medicinal Chemistry, 2021)

Experiments:
[1] = tested on: PBMCs; experiment: RNA sequencing of PBMCs, differential expression analysis; assay type: cell-based, human; conditions: 2 μM, 18 h; for Number of genes with significantly modulated expression: FDR <0.05, fold change >1.5 or <0.667 vs 0.1% DMSO; for Number of differentially expressed genes: down-regulated / Number of differentially expressed genes: up-regulated: vs 0.1% DMSO
Experimental: Based on the potent in vitro NOD2 activation by 68 and the PBMC cytotoxicity activation by 75, we explored the effects of 68 and 75 in terms of induction at the transcriptional level. Next-generation sequencing of RNA isolated from PBMCs was carried out following their stimulation for 18 h with 68 or 75 (2 μM). After applying a low expression filter, the remaining 19046 genes from the desmuramylpeptide-treated samples were compared to the vehicle-treated controls (0.1% DMSO).
Peripheral blood mononuclear cells from three independent donors were seeded (2 × 10^6 cells/mL) in 24-well plates in 1 mL of growth medium and treated with the compounds (2 μM) or vehicle (0.1% DMSO) for 18 h at 37 °C in 5% CO2. The cells were washed with phosphate-buffered saline, resuspended in RNAlater RNA stabilization solution (Sigma-Aldrich, St. Louis, MO, U.S.A.), and stored at −80 °C. RNA extraction, library construction, and sequencing were conducted by Genewiz (Leipzig, Germany).
Briefly, total RNA was extracted using the RNeasy mini kit (Qiagen, Hilden, Germany) according to the manufacturer protocol. RNA samples were quantified using Qubit 4.0 Fluorometer (Life Technologies, Carlsbad, CA, U.S.A.), and RNA integrity was checked with RNA Kit on a 5600 Fragment Analyzer (Agilent Technologies, Palo Alto, CA, U.S.A.). All RNA samples were of high quality with an RNA quality number of ≥9.4. RNA sequencing libraries were prepared using NEBNext Ultra II RNA library prep kit for Illumina according to the manufacturer instructions (New England Biolabs, Ipswich, MA, U.S.A.). Libraries were loaded on the Illumina NovaSeq 6000 instrument, and clustering was performed directly on the NovaSeq before sequencing according to the manufacturer instructions. The samples were sequenced using a 2 × 150 paired end configuration. Image analysis and base calling were conducted by the NovaSeq Control Software. Raw sequence data (.bcl files) generated from the Illumina NovaSeq were converted into fastq files and demultiplexed using Illumina’s bcl2fastq 2.19 software. One mismatch was allowed for index sequence identification. After investigating the quality of the raw data, sequence reads were trimmed to remove possible adapter sequences and nucleotides with poor quality using Trimmomatic v.0.36. The trimmed reads were mapped to the Homo sapiens reference genome as available on ENSEMBL, using STAR aligner v.2.5.2b, thus generating BAM files. Unique gene hit counts were calculated using feature counts from the Subread package v.1.5.2. Only unique reads that fell within exon regions were counted. After extraction of gene hit counts, the gene hit counts table was used for downstream differential expression analysis.
Differential expression analysis was performed with iDEP.91.[128] First, a low expression filter was applied (0.5 counts per million in at least 1 library). The remaining gene counts were normalized by counts per million in the EdgeR package, with a pseudocount of 4. Differential gene expression analysis was performed with the DESeq2 method, using a false discovery rate <0.05 and a gene expression fold change >1.5 or <0.667 as the cutoff values. The list of differentially expressed genes was then used as input for gene annotation and pathway enrichment analysis with Metascape.[94]

[2] = tested on: BMDC/CD4+ T-cell cocultures; experiment: T cell cytokine release in BMDC/T-cell cocultures; assay type: cell-based, mouse; conditions: BMDCs pretreated with 10 μM, CD4+ T cells, 72 h
Experimental: To evaluate the adjuvant potential of the two most-promising desmuramylpeptides, 68 and 75, in terms of their effects on DC-mediated activation of CD4^+ and CD8^+ T cells, we used an in vitro antigen-presentation assay with C57BL/6 mouse bone-marrow-derived DCs (BMDCs). Following stimulation with 68 and 75 (1 or 10 μM) in the presence of ovalbumin soluble protein (50 μg/mL), BMDCs were cocultured with carboxyfluorescein succinimidyl ester (CFSE)-labeled naive ovalbumin-specific CD4^+ or CD8^+ T cells, which were isolated from splenocytes of OT II and OT I transgenic mice, respectively. After 3 days of coculture, CD25 (α subunit of IL-2 receptor)[108] expression was determined, along with the CFSE dilution, as markers of T-cell activation and proliferation, respectively. […]
Supernatants from CD4^+ and CD8^+ T cells after 72 h of co-incubation with BMDCs (pretreated with desmuramylpeptides [10 μM] and washed) were collected as described above. The cytokine concentrations were determined with the Cytometric Bead Array Mouse Th1/Th2/Th17 Cytokine Kit (contents: IL-2, IL-4, IL-6, IFN-γ, TNF, IL-17A, IL-10; BD Bioscience) on an Attune NxT flow cytometer (Thermo Fisher Scientific, Waltham, MA, U.S.A.). […] The data were analyzed using the FlowJo (Tree Star, Inc., Ashland, OR, U.S.A.) and Prism (GraphPad, San Diego, CA, U.S.A.) software. […]

[3] = target: T1, NOD2 (Homo sapiens, UniProt Q9HC29); experiment: HEK-Blue NOD2 cell line reporter assay (NF-κB-inducible SEAP); assay type: cell-based; conditions: for EC50 / NOD2 activity at 2 μM (fold increase): HEK-Blue NOD2 cells; for NOD2 activity at 2 μM (fold increase): NF-κB transcriptional (SEAP) activity relative to 0.1% DMSO
T1 construct: host or cells: HEK-Blue NOD2 cells (HEK293-derived)
T1 sequence (Q9HC29 whole entry): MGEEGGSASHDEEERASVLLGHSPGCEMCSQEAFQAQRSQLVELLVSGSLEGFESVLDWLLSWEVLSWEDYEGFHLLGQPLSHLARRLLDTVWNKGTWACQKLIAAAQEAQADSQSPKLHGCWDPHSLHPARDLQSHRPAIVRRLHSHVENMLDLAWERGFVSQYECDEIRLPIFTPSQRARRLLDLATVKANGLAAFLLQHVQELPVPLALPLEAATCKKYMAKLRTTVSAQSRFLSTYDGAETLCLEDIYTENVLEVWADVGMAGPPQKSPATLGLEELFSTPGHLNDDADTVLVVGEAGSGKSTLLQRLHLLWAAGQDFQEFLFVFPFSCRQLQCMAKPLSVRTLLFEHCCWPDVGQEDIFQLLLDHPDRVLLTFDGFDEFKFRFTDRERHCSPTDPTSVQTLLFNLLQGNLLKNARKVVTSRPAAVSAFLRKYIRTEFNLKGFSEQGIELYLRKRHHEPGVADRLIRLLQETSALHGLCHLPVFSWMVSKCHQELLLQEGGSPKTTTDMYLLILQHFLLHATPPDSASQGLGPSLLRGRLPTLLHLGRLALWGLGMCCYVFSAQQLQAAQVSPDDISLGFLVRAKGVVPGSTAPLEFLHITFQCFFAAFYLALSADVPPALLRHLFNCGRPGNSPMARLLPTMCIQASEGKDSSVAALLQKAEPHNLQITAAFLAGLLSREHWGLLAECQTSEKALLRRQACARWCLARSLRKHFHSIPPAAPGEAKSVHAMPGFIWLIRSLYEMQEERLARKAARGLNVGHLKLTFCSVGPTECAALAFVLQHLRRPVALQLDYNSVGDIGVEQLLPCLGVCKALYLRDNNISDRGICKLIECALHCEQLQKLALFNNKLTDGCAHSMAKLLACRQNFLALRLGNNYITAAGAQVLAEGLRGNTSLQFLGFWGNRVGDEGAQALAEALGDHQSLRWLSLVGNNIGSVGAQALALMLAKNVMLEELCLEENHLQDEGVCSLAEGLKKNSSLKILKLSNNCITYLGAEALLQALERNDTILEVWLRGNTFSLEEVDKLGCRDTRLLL

[4] = 18 h, 7 or 8 concentrations 1 nM to 20 μM, mean ± SEM

SMILES	Modulation of interferon-stimulated genes (ISGs) [1]	Number of genes with significantly modulated expression [1]	Number of differentially expressed genes: down-regulated [1]	Number of differentially expressed genes: up-regulated [1]	Levels of IL-2, IL-6, IFN-γ, TNF-α and IL-17A in coculture supernatants [2]	Levels of Th2-associated IL-4 and IL-10 in coculture supernatants [2]	EC50 [3]	NOD2 activity at 2 μM (fold increase) ([3]; 18 h, mean ± SEM)	EC50 [3, 4]	Improvement in potency over 32 ([3]; ratio of EC50 versus compound 32)	Diminished activity by a factor, relative to 74 ([3]; ratio of EC50 versus compound 74)
COc1cc(/C=C/C(=O)NCC(=O)N[C@H](C(=O)N[C@H](CCC(=O)OC2CCCC2)C(=O)OC2CCCC2)C(C)C)ccc1O [Compound 68, Dicyclopentyl ((E)-3-(4-Hydroxy-3-methoxyphenyl)acryloyl)glycyl-L-valyl-D-glutamate]	up-regulation of several interferon-stimulated genes	445 genes	215 genes	230 genes	elevated levels	unaffected levels					
CCCCCCCCCCCCCCCCCC(=O)Oc1ccc(/C=C/C(=O)NCC(=O)N[C@H](C(=O)N[C@H](CCC(=O)OCC)C(=O)OCC)[C@@H](C)O)cc1OC [Compound 81, Diethyl ((E)-3-(3-Methoxy-4-(stearoyloxy)phenyl)acryloyl)glycyl-L-threonyl-D-glutamate]							1.45 µM	1.96 ± 0.01 fold increase	1.45 ± 0.15 µM	10 fold	
CCCCCCCCCCCCCCCCCC(=O)Oc1ccc(/C=C/C(=O)NCC(=O)N[C@H](C(=O)N[C@H](CCC(=O)OCC)C(=O)OCC)C(C)C)cc1OC [Compound 75, Diethyl ((E)-3-(3-Methoxy-4-(stearoyloxy)phenyl)acryloyl)glycyl-L-valyl-D-glutamate]		270 genes	143 genes	127 genes			2.83 µM	2.37 ± 0.01 fold increase	2.83 ± 0.206 µM		90
